Laboratory results as given in patent US20030092633A1, “Preventing desensitization of receptors” (priority 2001, published 2003).

Tests used:
[1] = Example VI: cystic fibrosis patient with shortness of breath; type: in vivo; conditions: inhaled GSNO, 3 cc of a 10 mM solution, pH 7, 4×/day
Experimental: A person with cystic fibrosis enters the hospital complaining of shortness of breath. […] They are started on inhaled GSNO (3 cc of a 10 mM solution, pH 7, 4×/day).

[2] = Example IV: metastatic prostate cancer patient with bone pain unresponsive to opiates; type: in vivo; conditions: intravenous GSNO 10 nmol per kg per minute in conjunction with morphine
Source text: A person with metastatic prostate cancer is suffering from severe bone pain unresponsive to opiates.

[3] = Example I: patient with class 4 congestive heart failure; type: in vivo
Experimental: A person with class 4 congestive heart failure enters the hospital with shortness of breath and bradyacardia. […] The patient is subsequently switched to IV dobutamine at 10 μg per kg per minute titrated to cardiac output. Over the following three days the drug is increased to 30 μg per kg per minute to maintain cardiac output. […] The patient undergoes bypass surgery and does well even though they have been viewed as at high risk.

[4] = Example III: patient who cannot be removed from bypass after coronary artery bypass grafting; type: in vivo; conditions: intravenous GSNO 2 nmol per kg per minute, after two hours
Source text: A person with an ejection fraction of 17% undergoes coronary artery bypass grafting. The surgeons are unable to remove the patient from bypass.

[5] = tested on: β-adrenergic receptor; test: Saturation binding with radiolabeled 125I-cyanopindolol in purified cardiac membrane of treated mice; type: in vivo
Experimental: Mice were treated with 10 ng/kg/day of GSNO or PBS infused continuously for 1 week through an azlet miniosmotic pump placed subcutaneously. Another set of mice was treated for 7 days with isoproterenol (30 mg/kg/day), and the fourth and final group received for 7 days, isoproterenol (30 mg/kg/day) plus GSNO (10 ng/kg/day). The mice were sacrificed and heart tissue was removed. Saturation binding with radiolabeled 1^125-cyanopindolol was carried out in purified cardiac membrane according to the procedure of Iaccarino et al, Circulation 98, 17A3-17A9 (1998).

[6] = Example II: patient on left ventricular assist device awaiting cardiac transplantation; type: in vivo; conditions: IV GSNO 4 nmol per kg per minute
Source text: A person awaiting cardiac transplantation is placed a left ventricular assist device, but continues to suffer from severe shortness of breath.

[7] = tested on: GRK; test: GRK phosphorylation of synthetic peptide substrate with 32P-ATP (isolated system); type: biochemical; conditions: GSNO 500 μM, 50 μM, 5 μm; counts per minute; FIG. 3
Experimental: An isolated system was provided consisting of medium, GRK, standard synthetic peptide substrate and radiolabeled ^32P-adenosine triphosphate, i.e., ^32P-ATP, as a source of phosphate. Runs were carried out on the system without additives, and with 500 μM glutathione (GSH) present and with GSNO (500 μM) present or with GSNO (50 μM) present or with GSNO (5 μm) present. The amount of bound ^32P was measured in counts per minute (CPM).

[8] = Ratio of heart weight to body weight after 1 week continuous infusion; type: in vivo; conditions: mice, infused continuously 1 week; GSNO 10/ng/kg/day; isoproterenol 30 mg/kg/day; combination 10 mg/kg/day GSNO plus 30 mg/kg/day isoproterenol; FIG. 1
Experimental: Mice were treated with 10/ng/kg/day of GSNO, or with PBS (control) or with isoproterenol (at a dosage of 30 mg/kg/day) or with 10 mg/kg/day of GSNO plus 30 mg/kg/day isoproterenol, infused continuously for 1 week. The animals were sacrificed and the hearts were weighed and a ratio of heart weight to body weight was determined for each case. The results are set forth in FIG. 1 where hw:bw, i.e., the legend on the vertical axis, is the ratio of heart weight to total body weight and “ISO” means isoproterenol. […] The increase in size of heart (hypertrophy) is an advantage especially in the case of a patient on a left ventricular heart assist device awaiting heart transplant and in the case of a patient who has had heart surgery and cannot be disconnected from a heart pump without loss of heart function. The asterisks in FIG. 1 mean […] compared to control.

[9] = Example VII: patient with rheumatoid arthritis and pulmonary infiltrates; type: in vivo; conditions: intravenous ethyl nitrite 2 nmol per kg per minute
Source text: A person with rheumatoid arthritis and pulmonary infiltrates complains of shortness of breath and knee pain.

[10] = Example V: heroine addict, dose tapering, withdrawal symptoms; type: in vivo, patient; conditions: ethyl nitrite intravenously 2 nmol per kg per minute
Source text: A heroine addict enters a clinic where their dose is tapered gradually. In order to avoid symptoms of withdrawal, ethyl nitrite is started intravenously at 2 nmol per kg per minute and symptoms of withdrawal, including sweats and shaking, are ameliorated.

## N[C@@H](CCC(=O)N[C@@H](CSN=O)C(=O)NCC(=O)O)C(=O)O [GSNO, S-nitrosoglutathione]
[1]
  FEV1 (acute): does not change acutely
  blood pressure: remains stable
[1]; with corresponding improvement in FEV1
  symptoms of shortness of breath: resolve over the following 48 hours
[2]
  bone pain: relieves their pain
[3]; IV GSNO 2 nmol per kg per minute, on dobutamine 30 μg per kg per minute, over the following 24 hours
  cardiac output: improved
[4]
  removal from bypass: successfully removed from bypass
[5]; GSNO 10 ng/kg/day infused 1 week, no isoproterenol
  amount of β-adrenergic receptor: 40 fmol per mg/protein
[6]
  cardiac output: increase in cardiac output
  shortness of breath: decrease in shortness of breath
[7]
  amount of bound 32P (incorporation of 32P into substrate): concentration dependent reduction in incorporation of ^32P
[8]
  ratio of heart weight to body weight (hw:bw), size of heart muscle: increases the size of the heart muscle

## N[C@@H](CSN=O)C(=O)O [S-nitroso-cysteine]
[7]
  amount of bound 32P (incorporation of 32P into substrate): same result of GRK inhibition and interference with substrate phosphorylation

## CC(C)NCC(O)c1ccc(O)c(O)c1 (stereo not drawn) [isoproterenol, reference compound]
[3]; 10 μg per minute intravenous isoproterenol
  symptoms (shortness of breath and bradyacardia): resolution of symptoms
[5]; isoproterenol 30 mg/kg/day for 7 days, no GSNO
  amount of β-adrenergic receptor: 20 fmol per milligram protein
[8]
  ratio of heart weight to body weight (hw:bw), size of heart muscle: increased the size of the heart muscle

## CCON=O [ethyl nitrite]
[9]
  knee pain: decrease in knee pain
  respiratory status: improvement in respiratory status
[10]
  symptoms of withdrawal, including sweats and shaking: ameliorated
